Drawing on ChEMBL document CHEMBL3751824, “Design, synthesis, and docking studies of phenylpicolinamide derivatives bearing 1H-pyrrolo[2,3-b]pyridine moiety as c-Met inhibitors” (Bioorg Med Chem, 2016), this text covers IC50 for 26 compounds.

One assay in a line: cells. The settings on record: Homo sapiens, PC-3, 72 h.
The test system of another assay is A549. The assay is described as follows: Cytotoxicity against human A549 cells after 72 hrs by MTT assay. The settings on record: A549, 72 h. In general terms: Tetrazolium assays rely on reduction of a dye to a coloured formazan, in cell work by metabolically active cells.
The subject of another assay is HepG2. Kind of assay: Cytotoxicity against human HepG2 cells after 72 hrs by MTT assay. The settings on record: HepG2, 72 h.
The subject of the next assay is MCF7. Kind of assay: cells. The settings on record: Homo sapiens, MCF7, 72 h.
The test system of another assay is HeLa. The assay is described as follows: Cytotoxicity against human HeLa cells after 72 hrs by MTT assay.
Assay [1] concerns the target Hepatocyte growth factor receptor (Homo sapiens, UniProt P08581). Kind of assay: Inhibition of c-Met (unknown origin) by mobility shift assay.

Where only a bound is given, the exact number is not on record here.

Hepatocyte growth factor receptor, sequence (P08581 whole entry): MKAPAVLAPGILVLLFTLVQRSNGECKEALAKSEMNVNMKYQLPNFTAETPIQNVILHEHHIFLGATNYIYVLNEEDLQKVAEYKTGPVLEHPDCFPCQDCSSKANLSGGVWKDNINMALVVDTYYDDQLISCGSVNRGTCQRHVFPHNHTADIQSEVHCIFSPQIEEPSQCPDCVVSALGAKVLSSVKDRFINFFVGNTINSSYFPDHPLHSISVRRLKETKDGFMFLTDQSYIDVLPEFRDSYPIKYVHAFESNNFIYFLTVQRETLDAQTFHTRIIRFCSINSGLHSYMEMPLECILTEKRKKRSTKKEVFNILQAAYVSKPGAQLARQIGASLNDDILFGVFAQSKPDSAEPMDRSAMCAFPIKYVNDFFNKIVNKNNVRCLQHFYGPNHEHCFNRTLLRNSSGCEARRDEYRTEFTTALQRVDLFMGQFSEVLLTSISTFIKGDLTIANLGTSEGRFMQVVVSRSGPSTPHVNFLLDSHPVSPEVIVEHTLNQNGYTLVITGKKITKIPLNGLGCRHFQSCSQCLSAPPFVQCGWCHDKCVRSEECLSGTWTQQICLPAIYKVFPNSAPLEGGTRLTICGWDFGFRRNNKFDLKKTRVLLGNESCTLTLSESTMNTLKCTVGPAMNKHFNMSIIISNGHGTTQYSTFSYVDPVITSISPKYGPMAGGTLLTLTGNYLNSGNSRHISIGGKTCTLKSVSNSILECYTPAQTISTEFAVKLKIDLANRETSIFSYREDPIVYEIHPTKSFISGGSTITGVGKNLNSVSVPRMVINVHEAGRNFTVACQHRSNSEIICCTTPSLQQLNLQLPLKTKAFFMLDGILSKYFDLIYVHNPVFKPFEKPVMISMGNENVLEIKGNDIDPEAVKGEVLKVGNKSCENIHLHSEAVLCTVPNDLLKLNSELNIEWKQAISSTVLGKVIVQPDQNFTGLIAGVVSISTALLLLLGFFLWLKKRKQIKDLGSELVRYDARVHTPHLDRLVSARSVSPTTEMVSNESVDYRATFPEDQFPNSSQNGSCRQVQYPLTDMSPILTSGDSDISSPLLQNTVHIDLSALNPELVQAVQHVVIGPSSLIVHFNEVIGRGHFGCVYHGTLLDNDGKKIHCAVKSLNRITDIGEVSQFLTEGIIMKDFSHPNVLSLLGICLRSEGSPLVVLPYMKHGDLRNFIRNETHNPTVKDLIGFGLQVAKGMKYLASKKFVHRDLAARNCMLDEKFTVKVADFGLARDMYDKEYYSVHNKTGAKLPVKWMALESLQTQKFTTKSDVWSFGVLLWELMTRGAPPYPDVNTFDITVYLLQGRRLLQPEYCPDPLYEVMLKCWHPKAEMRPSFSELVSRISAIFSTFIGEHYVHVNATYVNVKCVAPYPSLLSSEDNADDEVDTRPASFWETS
Description for MCF7: Cytotoxicity against human MCF7 cells after 72 hrs by MTT assay

Usually IC50 stands for the point on the concentration scale where inhibition reaches its midpoint. Turning to `Cc1ccc(-c2ccnc(C(=O)Nc3ccc(Oc4ccnc5[nH]ccc45)c(F)c3)c2)c(C)c1`, the IC50 in “cells” is 4.01 µM; in the assay on A549 it was 4.35 µM; in the assay with HepG2 it was 13.3 µM; in the assay with MCF7, 6.22 µM; in the assay on HeLa, 11.9 µM.
Regarding `COc1ccc(-c2ccc(C(=O)Nc3ccc(Oc4ccnc5[nH]ccc45)c(F)c3)nc2)cc1`, the IC50 in the assay “cells” was 0.65 µM; in the assay with A549, 2.24 µM; in the assay on MCF7, 10.1 µM; in assay [1], above 10 µM.
`COc1ccc(-c2ccnc(C(=O)Nc3ccc(Oc4ccnc5[nH]ccc45)cc3)c2)cc1`: the IC50 in “cells” turned out to be 9.62 µM; with A549, 6.97 µM; with HepG2 it was 11.7 µM; in the assay on MCF7 it was 8.21 µM; in the assay with HeLa, 7.53 µM.
As for `O=C(Nc1ccc(Oc2ccnc3[nH]ccc23)c(F)c1)c1cc(-c2ccc(F)cc2)ccn1`, the IC50 in “cells” was 0.71 µM; with A549, 1.09 µM; in the assay with MCF7, 9.52 µM.
With `O=C(Nc1ccc(Oc2ccnc3[nH]ccc23)cc1)c1cc(-c2ccc(C(F)(F)F)cc2)ccn1`, the IC50 in “cells” was 14.2 µM; with A549, 3.95 µM; in the assay on MCF7, above 10 µM; in assay [1], above 10 µM.
For `CCc1ccc(-c2ccnc(C(=O)Nc3ccc(Oc4ccnc5[nH]ccc45)c(F)c3)c2)cc1`, the IC50 in the assay “cells” worked out at 2.96 µM; in the assay with A549, 3.37 µM; in the assay with HepG2 it was 10.4 µM; in the assay with MCF7, 7.47 µM; with HeLa it was 8.63 µM.
Regarding `O=C(Nc1ccc(Oc2ccnc3[nH]ccc23)c(F)c1)c1cc(-c2ccc(C(F)(F)F)cc2)ccn1`, the IC50 is 4.35 µM in “cells”, 4.92 µM with A549, 8.55 µM in the assay with MCF7 and above 10 µM in assay [1].
As to `Cc1cccc(-c2ccnc(C(=O)Nc3ccc(Oc4ccnc5[nH]ccc45)c(F)c3)c2)c1`, the IC50 is 0.86 µM in “cells”; 1.75 µM in the assay on A549; 11.2 µM in the assay with HepG2; 9.12 µM in the assay with MCF7; 10.3 µM with HeLa.
On to `O=C(Nc1ccc(Oc2ccnc3[nH]ccc23)c(F)c1)c1ccc(-c2ccc(F)cc2)cn1`, for which the IC50 was 13.4 µM in “cells”, 6.01 µM in the assay on A549, above 10 µM with MCF7 and above 10 µM in assay [1].
For the compound `Cc1ccc(-c2ccc(C(=O)Nc3ccc(Oc4ccnc5[nH]ccc45)c(F)c3)nc2)cc1`, the IC50 is 2.64 µM in “cells”, 2.3 µM in the assay with A549 and 8.02 µM with MCF7.
Turning to `O=C(Nc1ccc(Oc2ccnc3[nH]ccc23)c(F)c1)c1cc(-c2ccc(F)cc2F)ccn1`, the IC50 (in “cells”; with A549; with MCF7; in assay [1]) was above 10 µM each time.
For `Cc1ccc(-c2ccnc(C(=O)Nc3ccc(Oc4ccnc5[nH]ccc45)c(F)c3)c2)cc1`, the IC50 in “cells” turned out to be 3.97 µM; with A549, 3.12 µM; with MCF7, 8.43 µM.
In the case of `Cc1ccc(-c2ccnc(C(=O)Nc3ccc(Oc4ccnc5[nH]ccc45)cc3)c2)cc1`, the IC50 in the assay “cells”, in the assay on A549 and in the assay with MCF7 was above 10 µM each time.
Take `COc1ccc(-c2ccc(C(=O)Nc3ccc(Oc4ccnc5[nH]ccc45)cc3)nc2)cc1`: the IC50 in the assay “cells”, in the assay on A549 and with MCF7 was above 10 µM throughout.
In the case of `COc1ccc(-c2ccnc(C(=O)Nc3ccc(Oc4ccnc5[nH]ccc45)c(F)c3)c2)cc1`, the IC50 in the assay “cells” amounted to 0.02 µM; in the assay on A549, 1.04 µM; with HepG2, 13.3 µM; with MCF7, 9.11 µM; in the assay on HeLa, 5.89 µM.
On to `O=C(Nc1ccc(Oc2ccnc3[nH]ccc23)c(F)c1)c1ccc(-c2ccc(F)cc2F)cn1`, for which the results for the IC50 in the assay “cells”, with A549 and with MCF7 were 4.72 µM, 3.1 µM and above 10 µM, respectively.
Regarding `CCc1ccc(-c2ccc(C(=O)Nc3ccc(Oc4ccnc5[nH]ccc45)cc3)nc2)cc1`, the IC50 (in the assay “cells”; with A549; with MCF7; in assay [1]) was above 10 µM throughout.
For the compound `O=C(Nc1ccc(Oc2ccnc3[nH]ccc23)c(F)c1)c1ccc(-c2ccccc2)cn1`, the IC50 was 0.76 µM in the assay “cells”, 1.25 µM in the assay with A549, 4.39 µM with MCF7 and above 10 µM in assay [1].
Regarding `Cc1ccc(-c2ccc(C(=O)Nc3ccc(Oc4ccnc5[nH]ccc45)cc3)nc2)cc1`, the IC50 in “cells”, in the assay with A549 and in the assay on MCF7 was above 10 µM each time.
As for `O=C(Nc1ccc(Oc2ccnc3[nH]ccc23)c(F)c1)c1ccc(-c2ccc(Cl)cc2)cn1`, the IC50 is 3.03 µM in “cells”, 10 µM in the assay with A549 and above 10 µM in the assay on MCF7.
The corresponding values for `O=C(Nc1ccc(Oc2ccnc3[nH]ccc23)cc1)c1cc(-c2ccc(Cl)cc2)ccn1` are 25.1 µM, 4.31 µM and above 10 µM.
The corresponding values for `O=C(Nc1ccc(Oc2ccnc3[nH]ccc23)cc1)c1cc(-c2ccccc2)ccn1` are 3.27 µM, 2.92 µM and 3.75 µM.
The corresponding values for `Cc1cccc(-c2ccnc(C(=O)Nc3ccc(Oc4ccnc5[nH]ccc45)cc3)c2)c1` are 5.47 µM, 7.01 µM and 7.47 µM.
As to `O=C(Nc1ccc(Oc2ccnc3[nH]ccc23)c(F)c1)c1cc(-c2ccccc2)ccn1`, the IC50 is above 10 µM in “cells”, 4.95 µM in the assay on A549, above 10 µM in the assay with MCF7 and above 10 µM in assay [1].
As for `O=C(Nc1ccc(Oc2ccnc3[nH]ccc23)cc1)c1ccc(-c2ccc(Cl)cc2)cn1`, the IC50 (in the assay “cells”; in the assay on A549; in the assay on MCF7; in assay [1]) was above 10 µM in each case.
Regarding `O=C(Nc1ccc(Oc2ccnc3[nH]ccc23)cc1)c1ccc(-c2ccc(F)cc2F)cn1`, the IC50 (in the assay “cells”; with A549; in the assay with MCF7; in assay [1]) was above 10 µM in each case.
